Patent publication US8497276B2, “Substituted indolo-piperidine compounds” (ArQule, Inc., priority 2009, dated 2013)

Experiments:
Tec kinase = target: T1, Tec kinase (Homo sapiens, UniProt P42680); assay: Tec Kinase Activity Assay; type: biochemical; conditions: 75 μM ATP, Pyk-2 substrate; compound concentration not given
T1 sequence (P42680 1-631): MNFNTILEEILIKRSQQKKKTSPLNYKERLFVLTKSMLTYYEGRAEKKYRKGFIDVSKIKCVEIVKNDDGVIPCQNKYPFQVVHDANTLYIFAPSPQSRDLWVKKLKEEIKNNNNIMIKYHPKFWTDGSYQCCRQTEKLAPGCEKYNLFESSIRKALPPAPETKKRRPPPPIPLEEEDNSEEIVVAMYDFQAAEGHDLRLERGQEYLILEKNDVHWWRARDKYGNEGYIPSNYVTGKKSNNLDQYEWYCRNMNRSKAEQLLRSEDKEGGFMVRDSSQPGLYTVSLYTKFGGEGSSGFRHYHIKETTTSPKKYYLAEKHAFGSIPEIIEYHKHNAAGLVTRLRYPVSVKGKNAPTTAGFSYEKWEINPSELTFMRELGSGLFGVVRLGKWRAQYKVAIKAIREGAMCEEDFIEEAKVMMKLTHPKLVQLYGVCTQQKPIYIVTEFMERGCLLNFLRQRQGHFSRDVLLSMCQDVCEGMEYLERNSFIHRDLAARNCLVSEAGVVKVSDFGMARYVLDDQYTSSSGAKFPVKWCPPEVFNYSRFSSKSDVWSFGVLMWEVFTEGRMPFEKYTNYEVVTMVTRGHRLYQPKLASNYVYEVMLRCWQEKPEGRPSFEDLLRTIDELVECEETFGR
Experimental: The disclosed compounds were assayed for their ability to inhibit the activity of Tec kinase. Nunc Maxisorb plates were coated with streptavidin by overnight incubation with 100 μl per well of 1 μg/ml Streptavidin in DPBS. Prior to the start of the experiment, the plates were washed with TBST (3×200 μl) and blocked for at least 1 hour by adding 150 μl of 5% BSA/TBST. The plates were then washed with TBST (3×200 μl/well) and left dry immediately before the capture step.
The disclosed test compounds and controls (Staurosporine and Sutent) were prepared using the following assay buffer (50 mM Tris-HCl, 0.02 mg/ml BSA, 10 mM MgCl2, 0.1 mM Na3VO4, 1 mM EGTA, 75 μM ATP, 0.01% NP-40, 2 mM DTT in 10% glycerol/water) at 3× desired final concentration. 20 μl of the test compounds (or control) and 20 μl TEC (0.25 ng/μl) were rapidly added to a reaction plate. The plate was incubated for 30 minutes. 20 μl of Pyk-2 (0.5 ng/μl) was then added to the reaction plate. The plate was incubated at room temperature for two hours.
50 μl was transferred from the reaction plate to the streptavidin coated plate. The capture plate was incubated at room temperature for 30 minutes then washed with TBST 6 times. 100 μl/well of Cell Signaling anti-phospho tyrosine was added to the capture plate at a dilution of 1:3000 in 2% BSA/TBST. The plate was incubated for one hour at room temperature then washed with TBST 6 times. 100 μl/well of alkaline phosphatase tagged goat anti-mouse antibody was added to the capture plate at a dilution of 1:4000 in 2% BSA/TBST. The plate was incubated for one hour at room temperature then washed with TBST 6 times.
The fluorescent readout was initiated by the addition of 100 μl/well of Attophos reagent (6 mg/10 ml) and the reading was done on the Perkin Elmer Envision system.

DLD-1 = assay: MTS Assay (cell growth inhibition), DLD-1; type: cell-based; conditions: DLD-1 cells, 72 hours with test compound; concentration not given
Experimental: (§1) Cells were maintained at 37° C., 5% CO2 in DMEM media supplemented with 1% fetal bovine serum, penicillin/streptomycin and fungizone (Invitrogen). Cells were seeded into 96-well tissue culture plates at 3000 per well and cultured at 37° C. for 18 hours. Test compounds were dissolved and diluted to 300× in DMSO then diluted 1:40 in DMEM. Cells were incubated with test compounds for 72 hours followed by incubation with tetrazolium compound (3-(4,5-dimethylthiazol-2-yl)-5-(3-carboxymethoxyphenyl)-2-(4-sulfophenyl)-2H-tetrazolium, inner salt; MTS) and the electron coupling reagent, phenazine methosulfate (PMS) for 4 hours. […] The ability of compounds to inhibit cell growth in this assay is correlated with the reduction of dehydrogenase enzyme activity found in metabolically active cells. The measurement of the absorbance of the formazan was assessed using an ENVISION™ (Perkin Elmer) microplate reader at 492 nm. The calculated IC50 value is the concentration of the test compound that causes a 50% decrease in the absorbance.

Kato III = assay: MTS Assay (cell growth inhibition), Kato III; type: cell-based; conditions: Kato III cells, 72 hours with test compound; concentration not given
Experimental: as §1

MDA-MB 231 = assay: MTS Assay (cell growth inhibition), MDA-MB 231; type: cell-based; conditions: MDA-MB 231 cells, 72 hours with test compound; concentration not given
Experimental: as §1

NCI-H1299 = assay: MTS Assay (cell growth inhibition), NCI-H1299; type: cell-based; conditions: NCI-H1299 cells, 72 hours with test compound; concentration not given
Experimental: as §1

PACA-2 = assay: MTS Assay (cell growth inhibition), PACA-2; type: cell-based; conditions: PACA-2 cells, 72 hours with test compound; concentration not given
Experimental: as §1

PC-3 = assay: MTS Assay (cell growth inhibition), PC-3; type: cell-based; conditions: PC-3 cells, 72 hours with test compound; concentration not given
Experimental: as §1

Biochemical IC50 (% inhibition) Tec (Tec kinase)	SMILES	MTS cell kill data (% inhibition) DLD-1 (DLD-1)	MTS cell kill data (% inhibition) Kato III (Kato III)	MTS cell kill data (% inhibition) MDA-MB 231 (MDA-MB 231)	MTS cell kill data (% inhibition) NCI-H1299 (NCI-H1299)	MTS cell kill data (% inhibition) PACA-2 (PACA-2)	MTS cell kill data (% inhibition) PC-3 (PC-3)
C (C = <50% inhibition)	COc1ccc(C2c3[nH]c4ccccc4c3CCN2c2ncnc3[nH]cnc23)cc1OC (stereo not drawn) [Compound 23, 1-(3,4-dimethoxyphenyl)-2-(9H-purin-6-yl)-2,3,4,9-tetrahydro-1H-beta-carboline]	B (B = 50-79% inhibition)	B (B = 50-79% inhibition)	C (C = <50% inhibition)	B (B = 50-79% inhibition)	B (B = 50-79% inhibition)	C (C = <50% inhibition)
C (C = <50% inhibition)	c1ccc(C2c3[nH]c4ccccc4c3CCN2c2ncnc3[nH]cnc23)cc1 (stereo not drawn) [Compound 25, 1-phenyl-2-(9H-purin-6-yl)-2,3,4,9-tetrahydro-1H-beta-carboline]	B (B = 50-79% inhibition)	B (B = 50-79% inhibition)	C (C = <50% inhibition)	B (B = 50-79% inhibition)	B (B = 50-79% inhibition)	C (C = <50% inhibition)
C (C = <50% inhibition)	c1ccc(C2c3[nH]c4ccccc4c3CCN2c2ncnc3[nH]ncc23)cc1 (stereo not drawn) [Compound 26, 1-phenyl-2-(1H-pyrazolo[3,4-d]pyrimidin-4-yl)-2,3,4,9-tetrahydro-1H-beta-carboline]	B (B = 50-79% inhibition)	B (B = 50-79% inhibition)	C (C = <50% inhibition)	B (B = 50-79% inhibition)	B (B = 50-79% inhibition)	C (C = <50% inhibition)
C (C = <50% inhibition)	Nc1nc(N2CCc3c([nH]c4ccccc34)C2CCc2ccccc2)c2nc[nH]c2n1 (stereo not drawn) [Compound 28, 6-[1-(2-phenylethyl)-1,3,4,9-tetrahydro-2H-beta-carbolin-2-yl]-9H-purin-2-amine]	B (B = 50-79% inhibition)	C (C = <50% inhibition)	C (C = <50% inhibition)	B (B = 50-79% inhibition)	C (C = <50% inhibition)	C (C = <50% inhibition)
C (C = <50% inhibition)	COc1ccc(C2c3[nH]c4ccccc4c3CCN2c2ncnc3[nH]ccc23)cc1 (stereo not drawn) [Compound 30, 1-(4-methoxyphenyl)-2-(7H-pyrrolo[2,3-d]pyrimidin-4-yl)-2,3,4,9-tetrahydro-1H-beta-carboline]	B (B = 50-79% inhibition)	A (A = 80-100% inhibition)	A (A = 80-100% inhibition)	B (B = 50-79% inhibition)	B (B = 50-79% inhibition)	A (A = 80-100% inhibition)

More lines, now with the values behind:

SMILES	Biochemical IC50 (% inhibition) Tec (Tec kinase)	MTS cell kill data (% inhibition) DLD-1 (DLD-1)	MTS cell kill data (% inhibition) Kato III (Kato III)	MTS cell kill data (% inhibition) MDA-MB 231 (MDA-MB 231)	MTS cell kill data (% inhibition) NCI-H1299 (NCI-H1299)	MTS cell kill data (% inhibition) PACA-2 (PACA-2)	MTS cell kill data (% inhibition) PC-3 (PC-3)
CC(C)c1ccc(C2c3[nH]c4ccccc4c3CCN2c2ncnc3[nH]ncc23)cc1 (stereo not drawn) [Compound 21, 1-(4-isopropylphenyl)-2-(1H-pyrazolo[3,4-d]pyrimidin-4-yl)-2,3,4,9-tetrahydro-1H-beta-carboline]	B (B = 50-79% inhibition)	A (A = 80-100% inhibition)	A (A = 80-100% inhibition)	A (A = 80-100% inhibition)	A (A = 80-100% inhibition)	A (A = 80-100% inhibition)	B (B = 50-79% inhibition)
COc1ccc(C2c3[nH]c4ccccc4c3CCN2c2ncnc3[nH]ccc23)cc1OC (stereo not drawn) [Compound 22, 1-(3,4-dimethoxyphenyl)-2-(7H-pyrrolo[2,3-d]pyrimidin-4-yl)-2,3,4,9-tetrahydro-1H-beta-carboline]	C (C = <50% inhibition)	B (B = 50-79% inhibition)	B (B = 50-79% inhibition)	C (C = <50% inhibition)	B (B = 50-79% inhibition)	B (B = 50-79% inhibition)	C (C = <50% inhibition)
c1ccc(C2c3[nH]c4ccccc4c3CCN2c2ncnc3[nH]ccc23)cc1 (stereo not drawn) [Compound 24, 1-phenyl-2-(7H-pyrrolo[2,3-d]pyrimidin-4-yl)-2,3,4,9-tetrahydro-1H-beta-carboline]	B (B = 50-79% inhibition)	B (B = 50-79% inhibition)	B (B = 50-79% inhibition)	C (C = <50% inhibition)	B (B = 50-79% inhibition)	B (B = 50-79% inhibition)	C (C = <50% inhibition)
c1ccc(CCC2c3[nH]c4ccccc4c3CCN2c2ncnc3[nH]cnc23)cc1 (stereo not drawn) [Compound 27, 1-(2-phenylethyl)-2-(9H-purin-6-yl)-2,3,4,9-tetrahydro-1H-beta-carboline]	B (B = 50-79% inhibition)	A (A = 80-100% inhibition)	A (A = 80-100% inhibition)	A (A = 80-100% inhibition)	A (A = 80-100% inhibition)	A (A = 80-100% inhibition)	A (A = 80-100% inhibition)
COc1ccc(C2c3[nH]c4ccccc4c3CCN2c2ncnc3[nH]cnc23)cc1 (stereo not drawn) [Compound 29, 1-(4-methoxyphenyl)-2-(9H-purin-6-yl)-2,3,4,9-tetrahydro-1H-beta-carboline]	C (C = <50% inhibition)	B (B = 50-79% inhibition)	B (B = 50-79% inhibition)	C (C = <50% inhibition)	B (B = 50-79% inhibition)	B (B = 50-79% inhibition)	C (C = <50% inhibition)
